Measurements from ChEMBL document CHEMBL1129603, “Synthesis and biological activity of metabolites of the antidiabetic, antihyperglycemic agent pioglitazone” (1996).

Species: Mus musculus
Assay: Compound was evaluated for Antihyperglycemic activity in KKAy mice, glucose level for the treated group (T) over the anti-hyperglycaemic activity
Type: functional

SMILES	T/C
CC(=O)c1ccc(CCOc2ccc(CC3SC(=O)NC3=O)cc2)nc1 (stereo unspecified)	0.74
CCc1ccc(C(O)COc2ccc(CC3SC(=O)NC3=O)cc2)nc1 (stereo unspecified)	0.78
O=C(O)Cc1ccc(CCOc2ccc(CC3SC(=O)NC3=O)cc2)nc1 (stereo unspecified)	0.91
CC(O)c1ccc(CCOc2ccc(CC3SC(=O)NC3=O)cc2)nc1 (stereo unspecified) [LERIGLITAZONE]	0.74
CCc1ccc(C(=O)COc2ccc(CC3SC(=O)NC3=O)cc2)nc1 (stereo unspecified) [MITOGLITAZONE]	0.39
CCc1ccc(CCOc2ccc(CC3SC(=O)NC3=O)cc2)nc1 (stereo unspecified) [PIOGLITAZONE]	0.49
